Patent US20240197761A1, “FUCOSYLATION AND IMMUNE MODULATION IN CANCER” (H. LEE MOFFITT CANCER CENTER AND RESEARCH INSTITUTE, INC., priority 2021, published 2024)

Tests used:
[1] = test system: mouse bone marrow-derived myeloid progenitors; assay: Myeloid phenotype profiling (M-MDSC, PMN-MDSC, moDC) of bone marrow-derived myeloid progenitors; type: cell-based; details: ± GM/G-CSF, average values from 12 mice
Method: Next, we investigated the effect of L-fuc on NO production of bone marrow derived MDSCs (FIGS. 8A and 8B). We observed that L-fuc abrogated NO production in all cases. […] We also wanted to look at how L-fuc treatment effected the expression of immunosuppression genes (FIG. 9). We assessed the expression of key MDSC biology-related genes at 24 or 72 hours after in initial L-fuc treatment of the cells. Generally, we observed reductions in ARGI, PARP, and CHOP expression. In contrast we observed upregulation of STAT1. To further assess how L-fuc/fucosylation affects myeloid phenotype, we modulated fucosylation using DMSO (control), 2-fluoro-fucose (2FIF, fucosylation inhibitor), or L-fuc in mouse bone marrow-derived myeloid progenitors treated ±GM/G-CSF (FIG. 10). We profiled changes In M-MDSC vs. PMN-IMDSC, as well as moDC, as we observed immunostimulatory activity. […] Shown are the average values irom 12 mice. We also observed that L-fucose alters TLR profiles of dendritic cells (FIG. 11).

SM1 tumors = assay: Anti-PD-1 mouse model, SM1: tumor growth and flow cytometric profiling of tumors and draining lymph nodes (Table 2); type: in vivo, C57BL/6 mice
Source text: FIGS. 21A and 21B Administration of combination L-fucose and anti-PD-1 suppresses tumors and increases intra-tumoral CD4+T central and effector memory cells (a) Volumetric growth curves for SW1 tumors in C3H/HeN mice (left) and SM1 tumors in C57BL/6 mice (right) fed L-fucose (LF) and treated with PBS (control) or anti-PD-1. (concurrent initiation of LF anti-PD1 (▾)). The tumor growth curves are means±SEM from ≥7 mice per group. (b) Volumetric growth curves for SM1 tumors in C57BL/6 mice fed ±L-fucose (LF) and treated with PBS (control) or anti-PD-1 (PD-1). (concurrent initiation of LF±PD1 (▾)). The tumor growth curves are means±SEM from ≥7 mice per group. *=p<0.05. At Day 7 (prior to administration of LF or PD1), Day 21 (endpoint for tumors of control-treated mice), Day 31 (endpoint for tumors of LF-treated mice), Day 63 (endpoint for tumors of PD1-treated mice), the primary tumors (Tumor) and draining lymph nodes (LN) of 4-5 mice per treatment group were analyzed by flow cytometry for intratumor levels of CD4+ and CD8+T subpopulations (naive/terminal, stem central/central/effector memory) and dendritic cell (DC) subpopulations (cDC1, cDC2, and monocyte-derived DC (moDC)) as in FIG. 15. Proportions of CD4+, CD8+, and DC subpopulations in each organ at each timepoints are represented by the color-coded pie charts (each pie chart represents 4-5 mice). Absolute numbers of the subpopulations per […] of tumor/tissue homogenate at each timepoint are represented in the color-coded column charts.
Tumors of SW1 or SM1 melanoma cells from […] or C57BL/6 mice, respectively) were digested using 1× tumor digest buffer (0.5 mg/mL Collagenase I, 0.5 mg/mL Collagenase IV, 0.25 mg/mL Hyalyronidase V, 0.1 mg/mL DNAse I in HBSS (Millipore Sigma (St. Louis, MO)). Tumors were homogenized using the Miltenyi MACs dissociator. Red blood cells were lysed using ACK lysis buffer (Life Technologies, (Grand Island, NY)). Tumor homogenate cells were counted using a standard hemocytometer.
Total TILs were gated first to single cells (based on forward scatter height vs width, followed by side scatter height vs. width). Live cells were gated from the Zombie negative population from the population above. TILs were gated based on splenocyte size from a control spleen. Individual immune subpopulations were sub-gated from the total TIL population using the following staining criteria: CD3+ for CD3+ T cells; CD3+/CD4+/CD8− for CD4+T cells; CD3+/CD4−/CD8+ for CD8+ T cells, CD11c+/CD11b+ for DCs; either NK1.1 (for C57/BL6 mice) or DX5 (for C3H/HeJ) for NK cells; CD11b+/GR1+ for MDSC-like cells; and F4/80+ for macrophages. Single-cell suspensions from tumor and spleen tissue were stained with Live/Dead Zombie NIR (Biolegend, (San Diego, CA)) at 1:1,000 in PBS for 20 min. Cell suspensions were spun down and stained with the following with antibodies at 0.5 μg/ml per antibody: APC anti-mouse CD3, Pacific Blue anti-mouse CD4, BV785 anti-mouse CD8, PerCP anti-mouse CD25, FITC anti-mouse F4/80, PeCy7 anti-mouse CD11c, PE anti-mouse NK1.1 or PE anti-mouse DX5, and PerCP-Cy5.5 anti-mouse CD11 b. After staining, the cells were washed and fixed (2% formaldehyde), followed by another wash and flow cytometric analysis. The compensation controls were prepared using 0.5 μg/mL of each antibody with UltraComp eBeads, (ThermoFisher Scientific (Waltham, MA)). All samples were subject to flow cytometric profiling using a LSR Flow Cytometer (BD Biosciences (San Jose, CA)) and analysis as indicated using FlowJo software (BD Biosciences (San Jose, CA)).
SW1 or SM1 mouse melanoma cells were injected into syngeneic C3H/HeN female or C57BL/6 male mice, respectively. After approximately 7 days, when the mice tumors reached −150 mm^3, the mice were either supplemented with or without 100 mM L-fucose (Biosynth (Oak Terrace, IL)) via drinking water, which was provided ad libitum. […]

C[C@H](O)[C@@H](O)[C@@H](O)[C@H](O)C=O [L-fucose]
myeloid phenotype (M-MDSC vs. PMN-MDSC, moDC) [1]: enrichment of a monocytic phenotype, including increased moDCs | CD4 central memory, average # of cells (SM1 tumors; Day 21, lymph nodes): 592.12 per 10^6 cells of total tumor | CD4 effector memory, average # of cells (SM1 tumors; Day 21, lymph nodes): 1155.12 per 10^6 cells of total tumor | CD4 naïve, average # of cells (SM1 tumors; Day 21, lymph nodes): 24832.36 per 10^6 cells of total tumor | CD4 stem central memory, average # of cells (SM1 tumors; Day 21, lymph nodes): 512.17 per 10^6 cells of total tumor | CD8 central memory, average # of cells (SM1 tumors; Day 21, lymph nodes): 1017.54 per 10^6 cells of total tumor | CD8 effector memory, average # of cells (SM1 tumors; Day 21, lymph nodes): 4093.80 per 10^6 cells of total tumor | CD8 naïve, average # of cells (SM1 tumors; Day 21, lymph nodes): 11896.39 per 10^6 cells of total tumor | CD8 stem central memory, average # of cells (SM1 tumors; Day 21, lymph nodes): 192.89 per 10^6 cells of total tumor | cDC1, average # of cells (SM1 tumors; Day 21, lymph nodes): 9395.57 per 10^6 cells of total tumor | cDC2, average # of cells (SM1 tumors; Day 21, lymph nodes): 13997.11 per 10^6 cells of total tumor | moDC, average # of cells (SM1 tumors; Day 21, lymph nodes): 1788.45 per 10^6 cells of total tumor | CD4+ CRTAM+, average # of cells (SM1 tumors; Day 21, tumors): 361.60 per 10^6 cells of total tumor | CD4 central memory, average # of cells (SM1 tumors; Day 21, tumors): 19.50 per 10^6 cells of total tumor | CD4 effector memory, average # of cells (SM1 tumors; Day 21, tumors): 302.98 per 10^6 cells of total tumor | CD4 naïve, average # of cells (SM1 tumors; Day 21, tumors): 186.42 per 10^6 cells of total tumor | CD4 stem central memory, average # of cells (SM1 tumors; Day 21, tumors): 3.22 per 10^6 cells of total tumor | CD8+ GRZB+, average # of cells (SM1 tumors; Day 21, tumors): 14146.30 per 10^6 cells of total tumor | CD8 central memory, average # of cells (SM1 tumors; Day 21, tumors): 25.37 per 10^6 cells of total tumor | CD8 effector memory, average # of cells (SM1 tumors; Day 21, tumors): 889.74 per 10^6 cells of total tumor | CD8 naïve, average # of cells (SM1 tumors; Day 21, tumors): 81.09 per 10^6 cells of total tumor | CD8 stem central memory, average # of cells (SM1 tumors; Day 21, tumors): 1.53 per 10^6 cells of total tumor | cDC1, average # of cells (SM1 tumors; Day 21, tumors): 2032.24 per 10^6 cells of total tumor | cDC2, average # of cells (SM1 tumors; Day 21, tumors): 12762.45 per 10^6 cells of total tumor | moDC, average # of cells (SM1 tumors; Day 21, tumors): 570.99 per 10^6 cells of total tumor | CD4 central memory, average # of cells (SM1 tumors; Day 31, lymph nodes): 424.67 per 10^6 cells of total tumor | CD4 effector memory, average # of cells (SM1 tumors; Day 31, lymph nodes): 6638.79 per 10^6 cells of total tumor | CD4 naïve, average # of cells (SM1 tumors; Day 31, lymph nodes): 30715.03 per 10^6 cells of total tumor | CD4 stem central memory, average # of cells (SM1 tumors; Day 31, lymph nodes): 408.72 per 10^6 cells of total tumor | CD8 central memory, average # of cells (SM1 tumors; Day 31, lymph nodes): 286.54 per 10^6 cells of total tumor | CD8 effector memory, average # of cells (SM1 tumors; Day 31, lymph nodes): 2478.29 per 10^6 cells of total tumor | CD8 naïve, average # of cells (SM1 tumors; Day 31, lymph nodes): 12415.41 per 10^6 cells of total tumor | CD8 stem central memory, average # of cells (SM1 tumors; Day 31, lymph nodes): 56.84 per 10^6 cells of total tumor | cDC1, average # of cells (SM1 tumors; Day 31, lymph nodes): 5781.73 per 10^6 cells of total tumor | cDC2, average # of cells (SM1 tumors; Day 31, lymph nodes): 22628.85 per 10^6 cells of total tumor | moDC, average # of cells (SM1 tumors; Day 31, lymph nodes): 7315.56 per 10^6 cells of total tumor | CD4+ CRTAM+, average # of cells (SM1 tumors; Day 31, tumors): 112.92 per 10^6 cells of total tumor | CD4 central memory, average # of cells (SM1 tumors; Day 31, tumors): 28.68 per 10^6 cells of total tumor | CD4 effector memory, average # of cells (SM1 tumors; Day 31, tumors): 297.82 per 10^6 cells of total tumor | CD4 naïve, average # of cells (SM1 tumors; Day 31, tumors): 401.23 per 10^6 cells of total tumor | CD4 stem central memory, average # of cells (SM1 tumors; Day 31, tumors): 6.29 per 10^6 cells of total tumor | CD8+ GRZB+, average # of cells (SM1 tumors; Day 31, tumors): 5679.05 per 10^6 cells of total tumor | CD8 central memory, average # of cells (SM1 tumors; Day 31, tumors): 26.40 per 10^6 cells of total tumor | CD8 effector memory, average # of cells (SM1 tumors; Day 31, tumors): 202.98 per 10^6 cells of total tumor | CD8 naïve, average # of cells (SM1 tumors; Day 31, tumors): 223.96 per 10^6 cells of total tumor | CD8 stem central memory, average # of cells (SM1 tumors; Day 31, tumors): 3.15 per 10^6 cells of total tumor | cDC1, average # of cells (SM1 tumors; Day 31, tumors): 200.82 per 10^6 cells of total tumor | cDC2, average # of cells (SM1 tumors; Day 31, tumors): 5753.01 per 10^6 cells of total tumor | moDC, average # of cells (SM1 tumors; Day 31, tumors): 1107.62 per 10^6 cells of total tumor | intratumoral CD4+T central and effector memory cells (SM1 tumors; L-fuc alone (FIG. 21b)): increased | tumor suppression in combination with anti-PD1 (SM1 tumors; SM1 model): augmented durable suppression | tumor suppression, single agent (SM1 tumors; SM1 model (FIG. 21a right)): less tumor suppressive than anti-PD1 alone
